Laboratory results reported in patent US8008007B2, “S-adenosyl-L-methionine analogs with extended activated groups for transfer by methyltransferases” (RWTH Aachen, priority 2005, dated 2011).

Experiments:
Format in all cases: biochemical
[1] = biological target: T1, M.TaqI (Thermus aquaticus, UniProt P14385); assay: Modification of adenine-N6 in duplex oligodeoxynucleotide I.II by M.TaqI, nucleoside analysis by HPLC/ESI-MS; details: 37° C. over night, near-stoichiometric enzyme
T1 construct: made in house
Description: Transfer of the activated ethyl (CH2CH3), propyl (CH2CH2CH3), prop-2-enyl (CH2CHCH2), prop-2-ynyl group (CH2CCH), but-2-ynyl (CH2CCCH3), pent-2-ynyl (CH2CCCH2CH3) or benzyl group (CH2C6H5) from cofactors 3-9 by the DNA adenine-N6 methyltransferase M.TaqI, the DNA cytosine-C5 methyltransferase M.HhaI variant Q82A or the DNA cytosine-N4 methyltransferase M.BcnIB to DNA was first investigated using short duplex oligodeoxynucleotides as substrates. After enzymatic transfer the duplex oligodeoxynucleotides were enzymatically fragmented and the resulting modified nucleosides were analyzed by reversed-phase HPLC coupled with ESI-MS.
M.TaqI was denatured by heating to 95° C. for 10 min and removed by centrifugation ([…], 2 min). The modified duplex oligodeoxynucleotides I^Z—R-II were desalted by gel filtration (NAP-5 column, Amersham Biosciences, Freiburg, Germany), eluted with water (1 mL) and lyophilized.
The modified duplex oligodeoxynucleotides I^Z—R-II were dissolved in buffer (100 μL, 10 mM Tris hydrochloride, 10 mM magnesium chloride, 1 mM zinc acetate, pH 7.5) containing Nuclease PI (1500 u, Sigma, Taufkirchen, Germany) and calf intestine alkaline phosphatase (30 u, MBI Fermentas, St. Leon-Rot, Germany) and incubated at 37° C. for 4 h. Nucleosides were analyzed by reversed-phase HPLC (Symmetry-C18 5 μm, 100 Å, 250×4.6 mm, equipped with a Symmetry-C18 5 μm, 100 Å, 20×4.6 mm pre-column, Waters, Eschborn, Germany). Compounds were eluted with acetonitrile (5% for 7 min, followed by linear gradients to 6% in 15 min, to 35% in 8 min and to 70% in 2 min) in triethylammonium acetate buffer (10 mM, pH 7.0) at a flow of 1 mL/min and detected at 254 nm.
For HPLC-coupled ESI-MS measurements compounds were eluted with methanol (0% for 3 min, followed by a linear gradient to 100% in 22 min) in ammonium formate buffer (20 mM, pH 3.5). A post-column mobile phase modification (equal co-flow of 96% methanol, 4% formic acid) was used to enhance the detection efficiency of 2′-deoxyadenosine and its derivatives. Mass spectra were recorded in 200-370 m/z range.
The hemimethylated duplex oligodeoxynucleotide I.II (compare Scheme 5, Example 2A) was produced by mixing equal molar amounts of complementary single-stranded oligodeoxynucleotide I (5′-GCCGCTCGATGCCG-3′) (SEQ. ID NO. 1) and II (5′-CGGCATCGA^MeGCGGC-3′, A^Me=N6-methyl-2′-deoxyadenosine) (SEQ ID NO. 2) in water, heating at 85° C. for 5 min and slow cooling to room temperature. […] The solution was heated to 95° C. for 10 min, supplemented with Proteinase K and incubated at 55° C. for 2 h. Hydrolysis products were removed by gel filtration (G-25 column, Amersham Biosciences).
The obtained solution was treated with buffer ( 1/10 volume, 100 mM Tris hydrochlorid, 100 mM magnesium chloride, 10 mM zinc acetate, pH 7.5) containing Nuclease P1 (1.14 u, Sigma, Taufkirchen, Germany) and calf intestine alkaline phosphatase (18 u, MBI Fermentas), incubated at 42° C. for 4 h and passed through a Microcon YM-3 spin column (Amicon). Nucleosides were analyzed by reversed-phase HPLC (Discovery HS C18 75×2.1 mm, 3 μm, equipped with a Supelguard Discovery HS C18 20×2.1 mm, 5 μm, pre-column, Supelco, Germany) coupled with a mass spectrometric detector (HP 1100 series ESI-MS equipped with single quadruple). Compounds were eluted with methanol (0% for 3 min, followed by linear gradients to 20% in 15 min and to 80% in 2 min) in ammonium formate buffer (20 mM, pH 3.5) at a flow of 0.3 mL/min. For on-line mass spectrometric detection post-column mobile phase modification (equal co-flow of 96% methanol, 4% formic acid and 1 mM sodium hydroxide) was used to enhance the detection efficiency of 2′-deoxyadenosine, 2′-deoxycytidine and their derivatives. Mass spectra were recorded in 50-600 m/z range.

[2] = biological target: T2, M.TaqI-V21G (Thermus aquaticus, UniProt P14385, V21G); assay: DNA protection assay with M.TaqI variant V21G on phage lambda DNA; details: 1 μg phage lambda DNA, cofactor 300 μM, 60° C. for 4 h, then R.TaqI
T2 construct: made in house
Description: (§1) Transfer kinetics of the activated ethyl (—CH2CH3), propyl (—CH2CH2CH3), prop-2-enyl (—CH2CH═CH2), prop-2-ynyl (—CH2C≡CH), but-2-ynyl (—CH2C≡CCH3), pent-2-ynyl (—CH2C≡CCH2CH3) and benzyl group (—CH2C6H5) from cofactors 3-9 by the DNA adenine-N6 methyltransferase M.TaqI and its variant V21 G, the DNA cytosine-C5 methyltransferase M.HhaI and its variant Q82A, the DNA cytosine-N4 methyltransferase M.BcnIB and the DNA cytosine-C5 methyltransferase M.SssI variant Q142A to phage lambda DNA (48502 base pairs) were investigated using a DNA protection assay. This assay makes use of the fact that DNA methyltransferase-catalyzed modifications of nucleobases within the recognition sequences of restriction endonucleases can protect the DNA against fragmentation by these enzymes. […] Unmodified DNA containing 5′-TCGA-3′ recognition sequences is readily fragmentated by R.TaqI. After DNA modification by M.TaqI in the presence of a cofactor with an activated group Z—R modified 5′-TCGA^Z—R-3′ sequences are formed and, as a result, R.TaqI is unable to fragment the modified DNA. Occurrence of fragmentation is then analyzed by agarose gel electrophoresis.
(§2) By varying the amounts of DNA methyltransferase, this assay is used to investigate the enzymatic activities of the different DNA methyltransferases with cofactors 3-9 and compare them to the enzymatic activities with the natural cofactor 1. The minimal amount of DNA methyltransferase needed to fully protect 1 μg of phage lambda DNA against restriction endonuclease fragmentation under the given experimental conditions is defined as one enzyme unit (u).
(§3) Afterwards a solution (30 μL) containing R.TaqI restriction endonuclease (40 u, MBI Fermentas), bovine serum albumin (0.166 mg/mL) and buffer (16.6 mM Tris hydrochloride, 166 mM sodium chloride, 8.3 mM magnesium chloride, pH 8.0) was added to each dilution and incubation at 60-65° C. was continued for 15 min. Loading buffer (10 μL, 0.25% bromphenol blue, 30% glycerol) was added to each sample, and aliquots (12 μL) were analyzed for the degree of protection by agarose gel (1%) electrophoresis. Parallel control experiments were performed with phage lambda DNA in the absence of M.TaqI and in the presence of M.TaqI (200 ng).
Therefore, the codon for V21 was changed to a codon for glycine by standard PCR mutagenesis (Ho et al., (1989) Gene 77, 51-59) and the correct DNA sequence of the complete gene was verified by DNA sequencing. […] The DNA protection assay with the V21G variant was performed as described for the wild type (Example 3A.1).

[3] = biological target: T1, M.TaqI; assay: DNA protection assay with M.TaqI (wild-type) on phage lambda DNA; details: 1 μg phage lambda DNA, cofactor 300 μM, 60° C. for 4 h, then R.TaqI; 1 u = minimal enzyme amount fully protecting 1 μg DNA
Description: as §1, §2, §3
Afterwards a solution (10 μL) containing R.TaqI restriction endonuclease (10 u, MBI Fermentas), bovine serum albumin (0.1 mg/mL) and buffer (33 mM Tris acetate, 66 mM potassium acetate, 10 mM magnesium acetate, pH 7.9) was added to each dilution and incubation was continued at 65° C. for 1 h. […] Parallel control experiments were performed with phage lambda DNA in the absence of M.TaqI and in the presence of M.TaqI (180 ng).

[4] = tested on: M.BcnIB; assay: DNA protection assay with M.BcnIB (wild-type) on phage lambda DNA; details: 1.10 μg phage lambda DNA, cofactor 300 μM, 37° C. for 4 h, then R.BcnI; pH 7.4 (pH 6.0 for cofactor 6)
Description: as §1, §2
Afterwards the reactions were stopped by heating to 80° C. for 10 min. A solution (10 μL) containing R.BcnI restriction endonuclease (12 u, MBI Fermentas), bovine serum albumin (0.1 mg/mL) and buffer (33 mM Tris acetate, 66 mM potassium acetate, 26.5 mM magnesium chloride, pH 7.9) was added to each dilution and incubation at 37° C. was continued for 1 h. […] Parallel control experiments were performed with phage lambda DNA in the absence of M.BcnIB and in the presence of M.BcnIB (144 ng).

[5] = biological target: T3, M.HhaI (Haemophilus parahaemolyticus, UniProt P05102); assay: DNA protection assay with M.HhaI (wild-type) on phage lambda DNA; details: 1.16 μg phage lambda DNA, cofactor 300 μM, 37° C. for 4 h, then R.Hin6I; pH 7.4 (pH 6.0 for cofactor 6)
T3 construct: made in house
Description: as §1, §2
(§4) Afterwards, the reactions were stopped by heating to 80° C. for 10 min. […] Parallel control experiments were performed with phage lambda DNA in the absence of M.HhaI and in the presence of M.HhaI (278 ng).

[6] = biological target: T4, M.SssI-Q142A (Spiroplasma monobiae, UniProt P15840, Q142A); assay: DNA protection assay with M.SssI variant Q142A on phage lambda DNA; details: 1 μg phage lambda DNA, cofactor 300 μM, 37° C. for 4 h, then R.BstUI
T4 construct: made in house
Description: as §1
By varying the amounts of DNA methyltransferase, this assay is used to investigate the enzymatic activities of the different DNA methyltransferases with cofactors 3-9 and compare them to the enzymatic activities with the natural cofactor 1. […]
Two fold serial dilutions (20 μL) of M.SssI-Q142A (starting with 3300 ng, 73 pmol) in buffer (10 mM Tris hydrochloride, 50 mM sodium chloride, 1 mM dithiothreitol, pH 7.9), phage lambda DNA (1 μg, 31.3 fmol, 3113 5′-CG-3′ recognition sequences, […] recognition sequences, MBI Fermentas) and the natural cofactor 1 (300 μM) or cofactor analogs 5 and 7 (300 μM) were incubated at 37° C. for 4 h. […] Loading buffer (10 μL, 0.25% bromphenol blue, 30% glycerol) was added to each sample, and aliquots (15 μL) were analyzed for the degree of protection by agarose gel (1%) electrophoresis.

[7] = biological target: T5, M.HhaI-Q82A (Haemophilus parahaemolyticus, UniProt P05102, Q82A); assay: DNA protection assay with M.HhaI variant Q82A on phage lambda DNA; details: 1.16 μg phage lambda DNA, cofactor 300 μM, 37° C. for 4 h, then R.Hin6I; pH 7.4 (pH 6.0 for cofactor 6)
T5 construct: made in house
Description: as §1, §2, §4
The DNA protection assay with the M.HhaI variant Q82A (see Example 2B) was performed as described for the wild type enzyme (Example 3B.1).

T1 sequence (P14385 whole entry): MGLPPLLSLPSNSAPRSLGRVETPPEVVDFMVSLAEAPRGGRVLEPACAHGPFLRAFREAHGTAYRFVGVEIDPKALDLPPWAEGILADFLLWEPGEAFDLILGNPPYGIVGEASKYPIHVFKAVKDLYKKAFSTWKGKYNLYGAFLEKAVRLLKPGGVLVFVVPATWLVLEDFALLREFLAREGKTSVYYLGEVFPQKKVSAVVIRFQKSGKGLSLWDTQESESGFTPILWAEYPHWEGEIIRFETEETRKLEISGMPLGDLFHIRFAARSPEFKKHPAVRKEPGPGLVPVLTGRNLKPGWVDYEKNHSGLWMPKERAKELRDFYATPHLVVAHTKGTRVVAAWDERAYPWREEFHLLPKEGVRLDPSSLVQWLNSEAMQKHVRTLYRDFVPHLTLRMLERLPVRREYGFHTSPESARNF
T2 sequence (P14385 whole entry V21G): as the sequence (P14385 whole entry) above, with V21G counted along it
T5 sequence (P05102 whole entry Q82A): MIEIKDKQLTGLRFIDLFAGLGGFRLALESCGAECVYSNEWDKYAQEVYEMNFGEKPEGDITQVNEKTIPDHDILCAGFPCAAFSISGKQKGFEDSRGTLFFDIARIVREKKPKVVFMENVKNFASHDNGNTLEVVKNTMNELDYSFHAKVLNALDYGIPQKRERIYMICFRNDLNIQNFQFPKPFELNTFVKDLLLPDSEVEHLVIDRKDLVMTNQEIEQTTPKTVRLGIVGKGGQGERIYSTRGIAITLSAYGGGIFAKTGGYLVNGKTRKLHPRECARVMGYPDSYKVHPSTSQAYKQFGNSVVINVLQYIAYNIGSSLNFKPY
T3 sequence (P05102 whole entry): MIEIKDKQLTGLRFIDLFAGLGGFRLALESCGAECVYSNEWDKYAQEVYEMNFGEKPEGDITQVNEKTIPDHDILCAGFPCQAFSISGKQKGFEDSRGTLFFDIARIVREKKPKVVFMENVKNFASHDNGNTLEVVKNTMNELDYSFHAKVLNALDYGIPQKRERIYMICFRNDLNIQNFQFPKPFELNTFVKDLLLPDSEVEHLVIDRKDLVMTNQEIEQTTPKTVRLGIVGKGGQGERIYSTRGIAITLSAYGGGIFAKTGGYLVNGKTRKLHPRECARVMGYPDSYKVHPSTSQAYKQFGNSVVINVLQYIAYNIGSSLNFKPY
T4 sequence (P15840 whole entry Q142A): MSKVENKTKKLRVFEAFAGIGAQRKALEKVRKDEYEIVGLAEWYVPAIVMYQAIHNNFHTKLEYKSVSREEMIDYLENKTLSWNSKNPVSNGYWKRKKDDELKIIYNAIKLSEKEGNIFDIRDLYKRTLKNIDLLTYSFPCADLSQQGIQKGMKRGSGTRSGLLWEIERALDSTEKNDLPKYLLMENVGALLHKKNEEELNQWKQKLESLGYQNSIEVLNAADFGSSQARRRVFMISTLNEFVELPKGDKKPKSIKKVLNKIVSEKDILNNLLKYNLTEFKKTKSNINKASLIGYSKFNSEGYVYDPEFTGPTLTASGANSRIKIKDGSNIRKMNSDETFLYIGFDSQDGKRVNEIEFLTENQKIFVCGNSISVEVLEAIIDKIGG

Compound	cofactor function for M.TaqI (transfer of group Z-R to adenine-N6) [1]	specific activity of M.TaqI-V21G with the cofactor [2]	specific activity of M.TaqI with the cofactor [3]	specific activity of M.BcnIB with the cofactor [4]	specific activity of M.HhaI with the cofactor [5]	specific activity of M.SssI-Q142A with the cofactor [6]	specific activity of M.HhaI-Q82A with the cofactor [7]
Nc1ncnc2c1ncn2C1OC(C[S+](CCC(N)C(=O)O)Cc2ccccc2)C(O)C1O (mixture of isomers) [Cofactor 9]	functions as a cofactor	2560 u/μg	640 u/μg	–	–	–	–
C[S+](CCC(N)C(=O)O)CC1OC(n2cnc3c(N)ncnc32)C(O)C1O (stereo not drawn) [Cofactor 1]	–	320 u/μg	40960 u/μg	444 u/μg	460 u/μg	20 u/μg	115 u/μg
